Measured values as given in US11753411B2, “Substituted pyrazolo[1,5-a]pyrimidines as TYK2 pseudokinase ligands” (Ventyx Biosciences, Inc., priority 2019, dated 2023).

Assays:
[1] = Human liver microsome stability assay; format: in vitro ADME; settings: 0.5 mg/mL human liver microsomes, 37° C., pH 7.4; urea versus corresponding amide
Experimental: The microsome stability assay was carried out in 96-well microtiter plates at 37° C. Reaction mixtures (25 μL) contained a final concentration of 1 µM test compound, 0.5 mg/mL human liver microsomes protein, and 1 mM NADPH and/or 1 mM UDPGA (with alamethicin) in 100 mM potassium phosphate, pH 7.4 buffer with 3 mM MgCl2. At each of the time points (for example, 0, 15, 30, and 60 minutes), 150 μL of quench solution (100% acetonitrile with 0.1% formic acid) with internal standard was transferred to each well. Besides the zero minute controls, mixtures containing the same components except the NADPH were also prepared as the negative control. Verapamil was included as a positive control to verify assay performance. Plates were sealed, vortexed, and centrifuged at 4° C. for 15 minutes at 4000 rpm. The supernatant was transferred to fresh plates for LC/MS/MS analysis. Comparison data for microsome stability of urea compounds described herein versus the corresponding amide compounds are shown in Table 1.

IFN-a/Jak1 Tyk2 = test: Co-stimulation assay in lysed whole blood: IFNa (JAK1/TYK2) stimulated STAT1 phosphorylation; format: cell-based; settings: Homo sapiens, 20 min, 100 ng/mL IFNa (with 10 ng/mL GM-CSF), pSTAT by flow cytometry
In short: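 Lysed human whole blood (RBC-lysed, resuspended in cRPMI) pre-incubated with compound 1 h at 37 °C, then stimulated 20 min with IFNa 100 ng/mL plus GM-CSF 10 ng/mL (final). Fixed, permeabilised, stained for pSTAT1 (PE) and pSTAT5 (AF488); flow cytometry read-out, ≥5,000–10,000 cells acquired.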

SMILES	half-life [1] [min]	IC50 (IFN-a/Jak1 Tyk2) [nM]
CNc1cc(Nc2cccc3c2OCCO3)nc2c(C(=O)NC3CC3)cnn12 [drawing 278, reference compound]	19	
CNC(=O)c1cnn2c(NC)cc(Nc3cc(F)cc4c3OCCO4)nc12 [reference compound]	< 50	
C#CCNC(=O)Nc1cnn2c(NC)cc(Nc3cccc4c3OCCO4)nc12 [Compound 101, 1-(5-((2,3-dihydrobenzo[b][1,4]dioxin-5-yl)amino)-7-(methylamino)pyrazolo[1,5-a]pyrimidin-3-yl)-3-(prop-2-yn-1-yl)urea]		< 1000
CNC(=O)Nc1cnn2c(NC)cc(Nc3cc(OC)ccc3OC)nc12 [Compound 67, 1-(5-((2,5-dimethoxyphenyl)amino)-7-(methylamino)pyrazolo[1,5-a]pyrimidin-3-yl)-3-methylurea]		1000 to 10000
CNc1cc(Nc2cc(F)cc3c2OCCO3)nc2c(NC(=O)NC3CS(=O)(=O)C3)cnn12 [Compound 126, 1-(1,1-dioxidothietan-3-yl)-3-(5-((7-fluoro-2,3-dihydrobenzo[b][1,4]dioxin-5-yl)amino)-7-(methylamino)pyrazolo[1,5-a]pyrimidin-3-yl)urea]		1000 to 10000
CNc1cc(Nc2cc(C#N)cc3c2OCCO3)nc2c(NC(=O)NC3CC3)cnn12 [Compound 89, 1-(5-((7-cyano-2,3-dihydrobenzo[b][1,4]dioxin-5-yl)amino)-7-(methylamino)pyrazolo[1,5-a]pyrimidin-3-yl)-3-cyclopropylurea]		< 1000
CNC(=O)Nc1cnn2c(NC)cc(Nc3cc(OC)cc4c3OCCO4)nc12 [Compound 81, 1-(5-((7-methoxy-2,3-dihydrobenzo[b][1,4]dioxin-5-yl)amino)-7-(methylamino)pyrazolo[1,5-a]pyrimidin-3-yl)-3-methylurea]		< 1000
CNC(=O)Nc1cnn2c(NC)cc(Nc3cc(F)cc4c3OCCC4)nc12 [Compound 158, 1-(5-((6-fluorochroman-8-yl)amino)-7-(methylamino)pyrazolo[1,5-a]pyrimidin-3-yl)-3-methylurea]		< 1000
CNc1cc(Nc2cc(OC)cc3c2OCCO3)nc2c(NC(=O)NC3CC3)cnn12 [Compound 84, 1-cyclopropyl-3-(5-((7-methoxy-2,3-dihydrobenzo[b][1,4]dioxin-5-yl)amino)-7-(methylamino)pyrazolo[1,5-a]pyrimidin-3-yl)urea]		1000 to 10000
CNc1cc(Nc2cc(F)cc3c2OCCO3)nc2c(NC(N)=O)cnn12 [Compound 124, 1-(5-((7-fluoro-2,3-dihydrobenzo[b][1,4]dioxin-5-yl)amino)-7-(methylamino)pyrazolo[1,5-a]pyrimidin-3-yl)urea]		< 1000
CNc1cc(Nc2cc(F)cc3c2OCCO3)nc2c(NC(=O)NCCC(F)F)cnn12 [Compound 178, 1-(3,3-difluoropropyl)-3-(5-((7-fluoro-2,3-dihydrobenzo[b][1,4]dioxin-5-yl)amino)-7-(methylamino)pyrazolo[1,5-a]pyrimidin-3-yl)urea]		< 1000
C#CCNC(=O)Nc1cnn2c(NC)cc(Nc3c(F)ccc4c3OCCO4)nc12 [Compound 135, 1-(5-((6-fluoro-2,3-dihydrobenzo[b][1,4]dioxin-5-yl)amino)-7-(methylamino)pyrazolo[1,5-a]pyrimidin-3-yl)-3-(prop-2-yn-1-yl)urea]		1000 to 10000
[2H]C([2H])([2H])Nc1cc(Nc2cc(F)cc3c2OC([2H])([2H])C([2H])([2H])O3)nc2c(NC(=O)N[C@@H]3C[C@@H]3F)cnn12 [Compound 181, 1-(5-((7-fluoro-2,3-dihydrobenzo[b][1,4]dioxin-5-yl-2,2,3,3-d4)amino)-7-((methyl-d3)amino)pyrazolo[1,5-a]pyrimidin-3-yl)-3-((1R,2S)-2-fluorocyclopropyl)urea]		< 1000
CNc1cc(Nc2cc(F)cc3c2OCCO3)nc2c(NC(=O)NC3CCC3C#N)cnn12 (centres unmarked) [Compound 46, 1-(2-cyanocyclobutyl)-3-(5-((7-fluoro-2,3-dihydrobenzo[b][1,4]dioxin-5-yl)amino)-7-(methylamino)pyrazolo[1,5-a]pyrimidin-3-yl)urea]		1000 to 10000
CNC(=O)Nc1cnn2c(NC)cc(Nc3cc(C(F)(F)F)cc4c3OCCO4)nc12 [Compound 76, 1-methyl-3-(7-(methylamino)-5-((7-(trifluoromethyl)-2,3-dihydrobenzo[b][1,4]dioxin-5-yl)amino)pyrazolo[1,5-a]pyrimidin-3-yl)urea]		< 1000
CNC(=O)Nc1cnn2c(NC)cc(Nc3cc(C)ccc3OC)nc12 [Compound 68, 1-(5-((2-methoxy-5-methylphenyl)amino)-7-(methylamino)pyrazolo[1,5-a]pyrimidin-3-yl)-3-methylurea]		< 1000
CNc1cc(Nc2cccc3c2OCCO3)nc2c(NC(=O)NC3(C#N)CC3)cnn12 [Compound 28, 1-(1-cyanocyclopropyl)-3-(5-((2,3-dihydrobenzo[b][1,4]dioxin-5-yl)amino)-7-(methylamino)pyrazolo[1,5-a]pyrimidin-3-yl)urea]		≥ 10000
CNc1cc2nc3c(cnn13)NC(=O)NCCOc1cccc(c1)N2 [Compound 22, (1^3E,1^4E)-1^7-(methylamino)-4-oxa-2,7,9-triaza-1(5,3)-pyrazolo[1,5-a]pyrimidina-3(1,3)-benzenacyclononaphan-8-one]		1000 to 10000

Results, then the compound that gave them:

half-life [1] [min]	IC50 (IFN-a/Jak1 Tyk2) [nM]	SMILES
> 120		CNc1cc(Nc2cccc3c2OCCO3)nc2c(NC(=O)NC3CC(O)C3)cnn12 (centres unmarked) [drawing 281]
	< 1000	CNc1cc(Nc2cccc3c2OCCO3)nc2c(NC(=O)NC3CC(F)C3)cnn12 (centres unmarked) [Compound 35, 1-(5-((2,3-dihydrobenzo[b][1,4]dioxin-5-yl)amino)-7-(methylamino)pyrazolo[1,5-a]pyrimidin-3-yl)-3-(3-fluorocyclobutyl)urea]
	1000 to 10000	CNC(=O)Nc1cnn2c(NC)cc(Nc3cccc4c3N(C)CCO4)nc12 [Compound 163, 1-methyl-3-(5-((4-methyl-3,4-dihydro-2H-benzo[b][1,4]oxazin-5-yl)amino)-7-(methylamino)pyrazolo[1,5-a]pyrimidin-3-yl)urea]
	≥ 10000	CNc1cc(Nc2cccc3c2OCCO3)nc2c(NC(=O)NC3CC(C)(O)C3)cnn12 (centres unmarked) [Compound 48, 1-(5-((2,3-dihydrobenzo[b][1,4]dioxin-5-yl)amino)-7-(methylamino)pyrazolo[1,5-a]pyrimidin-3-yl)-3-(3-hydroxy-3-methylcyclobutyl)urea]
	< 1000	CNc1cc(Nc2cccc3c2OCCO3)nc2c(NC(=O)NC3CC(CO)C3)cnn12 (centres unmarked) [Compound 47, 1-(5-((2,3-dihydrobenzo[b][1,4]dioxin-5-yl)amino)-7-(methylamino)pyrazolo[1,5-a]pyrimidin-3-yl)-3-(3-(hydroxymethyl)cyclobutyl)urea]
	< 1000	CNC(=O)Nc1cnn2c(NC)cc(Nc3ccccc3OC)nc12 [Compound 149, 1-(5-((2-methoxyphenyl)amino)-7-(methylamino)pyrazolo[1,5-a]pyrimidin-3-yl)-3-methylurea]
	< 1000	CNc1cc(Nc2cccc3c2OCCO3)nc2c(NC(=O)N[C@H](C)C#N)cnn12 [Compound 122, (R)-1-(1-cyanoethyl)-3-(5-((2,3-dihydrobenzo[b][1,4]dioxin-5-yl)amino)-7-(methylamino)pyrazolo[1,5-a]pyrimidin-3-yl)urea]
	≥ 10000	CNC(=O)Nc1cnn2c(NC)cc(Nc3ccccc3-c3ccccc3)nc12 [Compound 165, 1-(5-([1,1′-biphenyl]-2-ylamino)-7-(methylamino)pyrazolo[1,5-a]pyrimidin-3-yl)-3-methylurea]
	1000 to 10000	CNC(=O)Nc1cnn2c(NC)cc(Nc3cccc4c3OCC(=O)N4)nc12 [Compound 98, 1-methyl-3-(7-(methylamino)-5-((3-oxo-3,4-dihydro-2H-benzo[b][1,4]oxazin-8-yl)amino)pyrazolo[1,5-a]pyrimidin-3-yl)urea]
	< 1000	CNc1cc(-c2cn(C(C)C)c3ncccc23)nc2c(NC(=O)NCC#N)cnn12 [Compound 130, 1-(cyanomethyl)-3-(5-(1-isopropyl-1H-pyrrolo[2,3-b]pyridin-3-yl)-7-(methylamino)pyrazolo[1,5-a]pyrimidin-3-yl)urea]
	< 1000	CNc1cc(Nc2cccc3c2OCCO3)nc2c(NC(=O)NC(C)C)cnn12 [Compound 148, 1-(5-((2,3-dihydrobenzo[b][1,4]dioxin-5-yl)amino)-7-(methylamino)pyrazolo[1,5-a]pyrimidin-3-yl)-3-isopropylurea]
	≥ 10000	CNc1cc(-c2cn(C(C)C)c3ncccc23)nc2c(NC(=O)NC3CC3O)cnn12 (centres unmarked) [Compound 58, 1-(2-hydroxycyclopropyl)-3-(5-(1-isopropyl-1H-pyrrolo[2,3-b]pyridin-3-yl)-7-(methylamino)pyrazolo[1,5-a]pyrimidin-3-yl)urea]
	< 1000	CNC(=O)Nc1cnn2c(NC)cc(Nc3ccccc3-c3ncco3)nc12 [Compound 71, 1-methyl-3-(7-(methylamino)-5-((2-(oxazol-2-yl)phenyl)amino)pyrazolo[1,5-a]pyrimidin-3-yl)urea]
	< 1000	[2H]C([2H])([2H])Nc1cc(Nc2cccc3c2OCCO3)nc2c(NC(=O)N[C@@H]3C[C@@H]3F)cnn12 [Compound 40, 1-(5-((2,3-dihydrobenzo[b][1,4]dioxin-5-yl)amino)-7-((methyl-d3)amino)pyrazolo[1,5-a]pyrimidin-3-yl)-3-((1R,2S)-2-fluorocyclopropyl)urea]
